Laboratory results as given in patent US10420341B2, “Herbicidal phenylpyrimidines” (BASF SE, priority 2015, dated 2019).

Legend:
APESV = assay: greenhouse pre-emergence herbicidal test; format: in vivo, Apera spica-venti; conditions: pre-emergence method, scale from 0 to 100
Outline: (§1)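 Damage was rated on a 0 to 100 scale, where 0 is normal growth and 100 is no emergence or full destruction of aerial parts, after 2 to 4 weeks. Treatment was applied pre-emergence, right after sowing, as an aqueous suspension or emulsion via fine nozzles.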

ABUTH = assay: greenhouse post-emergence herbicidal test; format: in vivo, Abutilon theophrasti; conditions: post-emergence method, scale from 0 to 100
Excerpt: (§2) The seeds of the test plants were sown separately for each species. For the post-emergence treatment, the test plants were first grown to a height of 3 to 15 cm, depending on the plant habit, and only then treated with the active ingredients which had been suspended or emulsified in water. For this purpose, the test plants were either sown directly and grown in the same containers, or they were first grown separately as seedlings and transplanted into the test containers a few days prior to treatment. Depending on the species, the plants were kept at 10-25° C. or 20-35° C., respectively. The test period extended over 2 to 4 weeks. During this time, the plants were tended, and their response to the individual treatments was evaluated. Evaluation was carried out using a scale from 0 to 100. 100 means no emergence of the plants, or complete destruction of at least the aerial moieties, and 0 means no damage, or normal course of growth. […] The plants used in the greenhouse experiments were of the following species: [table]

ECHCG [1] = assay: greenhouse pre-emergence herbicidal test; format: in vivo, Echinocloa crus-galli; conditions: pre-emergence method, scale from 0 to 100
Outline: as §1

ECHCG [2] = assay: greenhouse post-emergence herbicidal test; format: in vivo, Echinocloa crus-galli; conditions: post-emergence method, scale from 0 to 100
Outline: (§3)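 Greenhouse plants, grown to 3–15 cm, were treated post-emergence with emulsified or suspended compound and assessed over 2–4 weeks on a 0–100 damage scale.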

AVEFA = assay: greenhouse post-emergence herbicidal test; format: in vivo, Avena fatua; conditions: post-emergence method, application rate 500 g/ha, scale from 0 to 100
Outline: as §3

POLCO = assay: greenhouse post-emergence herbicidal test; format: in vivo, Polygonum convolvulus; conditions: post-emergence method, scale from 0 to 100
Excerpt: as §2

ALOMY = assay: greenhouse post-emergence herbicidal test; format: in vivo, Alopercurus myosuroides; conditions: post-emergence method, scale from 0 to 100
Outline: as §3

AMARE = assay: greenhouse post-emergence herbicidal test; format: in vivo, Amaranthus retroflexus; conditions: post-emergence method, application rate 500 g/ha, scale from 0 to 100
Excerpt: as §2

Row | SMILES | herbicidal activity against ECHCG (ECHCG [2]; application rate 500 g/ha) | herbicidal activity against APESV (APESV; application rate 500 g/ha) | herbicidal activity against POLCO (POLCO; application rate 500 g/ha) | herbicidal activity against ECHCG (ECHCG [1]; application rate 500 g/ha) | further results
1 | CCc1ncc(-c2ccccc2OC)c(C(=O)O)n1 [example 16] |  |  |  |  | herbicidal activity against APESV (APESV; application rate 2000 g/ha): very good (a very good herbicidal activity is given at values of at least 85); herbicidal activity against ABUTH (ABUTH; application rate 2000 g/ha): very good (a very good herbicidal activity is given at values of at least 85); herbicidal activity against ECHCG (ECHCG [1]; application rate 2000 g/ha): very good (a very good herbicidal activity is given at values of at least 85)
2 | COc1ccccc1-c1cnc(C(C)C)nc1C(=O)O [example 35] |  |  |  |  | herbicidal activity against APESV (APESV; application rate 1000 g/ha): very good (a very good herbicidal activity is given at values of at least 85); herbicidal activity against ABUTH (ABUTH; application rate 1000 g/ha): very good (a very good herbicidal activity is given at values of at least 85); herbicidal activity against ECHCG (ECHCG [1]; application rate 1000 g/ha): very good (a very good herbicidal activity is given at values of at least 85)
3 | Cc1ccccc1-c1cnc(CC(C)C)nc1C(=O)O [example 40] |  |  |  |  | herbicidal activity against ECHCG (ECHCG [2]; application rate 1000 g/ha): good (A good herbicidal activity is given at values of at least 70); herbicidal activity against APESV (APESV; application rate 1000 g/ha): good (A good herbicidal activity is given at values of at least 70); herbicidal activity against ABUTH (ABUTH; application rate 1000 g/ha): very good (a very good herbicidal activity is given at values of at least 85)
4 | COc1ncc(-c2ccccc2Cl)c(C(=O)O)n1 [example 51] | good (A good herbicidal activity is given at values of at least 70) | very good (a very good herbicidal activity is given at values of at least 85) | very good (a very good herbicidal activity is given at values of at least 85) | very good (a very good herbicidal activity is given at values of at least 85) | herbicidal activity against AVEFA (AVEFA): good (A good herbicidal activity is given at values of at least 70)
5 | COC(=O)c1nc(OC)ncc1-c1ccccc1Cl [example 61] | good (A good herbicidal activity is given at values of at least 70) | very good (a very good herbicidal activity is given at values of at least 85) | very good (a very good herbicidal activity is given at values of at least 85) | very good (a very good herbicidal activity is given at values of at least 85) | herbicidal activity against ALOMY (ALOMY; application rate 500 g/ha): good (A good herbicidal activity is given at values of at least 70)
6 | Cc1ccc(C)c(-c2cnc(N(C)C)nc2C(=O)O)c1 [example 129] |  | very good (a very good herbicidal activity is given at values of at least 85) |  | good (A good herbicidal activity is given at values of at least 70) | herbicidal activity against ABUTH (ABUTH; application rate 500 g/ha): good (A good herbicidal activity is given at values of at least 70)
7 | COc1ccc(Cl)c(-c2cnc(C3CC3)nc2C(=O)O)c1 [example 145] | very good (a very good herbicidal activity is given at values of at least 85) | very good (a very good herbicidal activity is given at values of at least 85) | very good (a very good herbicidal activity is given at values of at least 85) | very good (a very good herbicidal activity is given at values of at least 85) | 
8 | O=C(O)c1nc(C2CC2)ncc1-c1c(F)cc(Cl)cc1Cl [example 148] |  |  |  |  | herbicidal activity against APESV (APESV; application rate 250 g/ha): very good (a very good herbicidal activity is given at values of at least 85); herbicidal activity against POLCO (POLCO; application rate 250 g/ha): very good (a very good herbicidal activity is given at values of at least 85); herbicidal activity against ALOMY (ALOMY; application rate 250 g/ha): very good (a very good herbicidal activity is given at values of at least 85)
9 | Cc1ccc(-c2cnc(C3CC3)nc2C(=O)O)c(C)c1 [example 168] |  | very good (a very good herbicidal activity is given at values of at least 85) | very good (a very good herbicidal activity is given at values of at least 85) | very good (a very good herbicidal activity is given at values of at least 85) | herbicidal activity against ALOMY (ALOMY; application rate 500 g/ha): good (A good herbicidal activity is given at values of at least 70)
10 | O=C(O)c1nc(C2CC2)ncc1-c1ccccc1OC(F)F [example 181] | good (A good herbicidal activity is given at values of at least 70) | very good (a very good herbicidal activity is given at values of at least 85) | very good (a very good herbicidal activity is given at values of at least 85) | very good (a very good herbicidal activity is given at values of at least 85) | 
11 | COC(=O)c1nc(C2CC2)ncc1-c1cc(Cl)ccc1Cl [example 204] |  | very good (a very good herbicidal activity is given at values of at least 85) | very good (a very good herbicidal activity is given at values of at least 85) |  | herbicidal activity against AMARE (AMARE): very good (a very good herbicidal activity is given at values of at least 85)
12 | COC(=O)c1nc(C2CC2)ncc1-c1cccc(F)c1Cl [example 210] | very good (a very good herbicidal activity is given at values of at least 85) | very good (a very good herbicidal activity is given at values of at least 85) | very good (a very good herbicidal activity is given at values of at least 85) | very good (a very good herbicidal activity is given at values of at least 85) | 
13 | COC(=O)c1nc(C2CC2)ncc1-c1c(C)cccc1C [example 225] | good (A good herbicidal activity is given at values of at least 70) | very good (a very good herbicidal activity is given at values of at least 85) | very good (a very good herbicidal activity is given at values of at least 85) | very good (a very good herbicidal activity is given at values of at least 85) | 
14 | COC(=O)c1nc(C2CCC2)ncc1-c1ccccc1Cl [example 277] |  | good (A good herbicidal activity is given at values of at least 70) |  |  | herbicidal activity against ABUTH (ABUTH; application rate 500 g/ha): very good (a very good herbicidal activity is given at values of at least 85)
15 | CC(C)(C)SC(=O)c1nc(C2CC2)ncc1-c1ccccc1Cl [example 281] |  | very good (a very good herbicidal activity is given at values of at least 85) | very good (a very good herbicidal activity is given at values of at least 85) |  | herbicidal activity against ALOMY (ALOMY; application rate 500 g/ha): very good (a very good herbicidal activity is given at values of at least 85)
16 | CCCOc1ccc(C(F)(F)F)cc1-c1cnc(C2CC2)nc1C(=O)O [example 306] |  |  |  |  | herbicidal activity against ABUTH (ABUTH; application rate 1000 g/ha): very good (a very good herbicidal activity is given at values of at least 85)
17 | COC(=O)c1nc(C2CC2)ncc1-c1ccccc1C(F)F [example 308] |  | very good (a very good herbicidal activity is given at values of at least 85) | very good (a very good herbicidal activity is given at values of at least 85) | very good (a very good herbicidal activity is given at values of at least 85) | herbicidal activity against AVEFA (AVEFA): very good (a very good herbicidal activity is given at values of at least 85); herbicidal activity against ALOMY (ALOMY; application rate 500 g/ha): very good (a very good herbicidal activity is given at values of at least 85)
18 | O=C(O)c1nc(C2CC2)ncc1-c1ccccc1C(F)F [example 309] |  | very good (a very good herbicidal activity is given at values of at least 85) | very good (a very good herbicidal activity is given at values of at least 85) | very good (a very good herbicidal activity is given at values of at least 85) | herbicidal activity against AVEFA (AVEFA): very good (a very good herbicidal activity is given at values of at least 85); herbicidal activity against ALOMY (ALOMY; application rate 500 g/ha): very good (a very good herbicidal activity is given at values of at least 85)
19 | O=C(O)c1nc(C2CC2)ncc1-c1ccccc1SC(F)(F)F [example 310] |  |  |  |  | herbicidal activity against ABUTH (ABUTH; application rate 1000 g/ha): good (A good herbicidal activity is given at values of at least 70)
20 | O=C(O)c1ccccc1-c1cnc(C2CC2)nc1C(=O)O [example 318] |  |  |  |  | herbicidal activity against ABUTH (ABUTH; application rate 2000 g/ha): very good (a very good herbicidal activity is given at values of at least 85); herbicidal activity against ECHCG (ECHCG [1]; application rate 2000 g/ha): very good (a very good herbicidal activity is given at values of at least 85)
